# Experimental data from article PMC5457512, “Structural basis for perception of diverse chemical substances by T1r taste receptors” (Nature Communications, 2017).
# Like-named read-outs stand apart in the source and are kept apart here.
# T1: T1r2a–T1r3:S300E mutant (Oryzias latipes, UniProt A0A173M0G2)
# T1 sequence (A0A173M0G2 12-802): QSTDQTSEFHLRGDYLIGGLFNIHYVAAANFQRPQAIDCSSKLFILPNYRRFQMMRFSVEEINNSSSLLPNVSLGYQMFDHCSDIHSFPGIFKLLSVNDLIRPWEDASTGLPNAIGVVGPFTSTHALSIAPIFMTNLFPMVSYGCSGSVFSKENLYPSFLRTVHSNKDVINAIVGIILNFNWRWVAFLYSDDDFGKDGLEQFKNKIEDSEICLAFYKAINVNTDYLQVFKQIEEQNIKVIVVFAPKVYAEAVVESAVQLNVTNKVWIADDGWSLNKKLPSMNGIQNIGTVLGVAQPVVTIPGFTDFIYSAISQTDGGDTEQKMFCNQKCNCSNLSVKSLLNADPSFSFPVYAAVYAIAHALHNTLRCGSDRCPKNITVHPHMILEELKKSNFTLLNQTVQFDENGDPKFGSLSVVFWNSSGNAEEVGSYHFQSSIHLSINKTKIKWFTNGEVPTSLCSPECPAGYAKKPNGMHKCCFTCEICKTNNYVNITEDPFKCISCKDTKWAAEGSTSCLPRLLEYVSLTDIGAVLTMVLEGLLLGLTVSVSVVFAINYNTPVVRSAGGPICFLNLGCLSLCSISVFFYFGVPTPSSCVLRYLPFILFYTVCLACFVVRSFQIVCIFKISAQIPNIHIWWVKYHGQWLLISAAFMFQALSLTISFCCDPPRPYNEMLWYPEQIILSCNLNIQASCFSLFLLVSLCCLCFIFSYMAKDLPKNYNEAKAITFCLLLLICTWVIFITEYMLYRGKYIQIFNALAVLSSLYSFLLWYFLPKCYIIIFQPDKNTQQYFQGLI
# T1 sequence (A0A173M094 12-836 partner): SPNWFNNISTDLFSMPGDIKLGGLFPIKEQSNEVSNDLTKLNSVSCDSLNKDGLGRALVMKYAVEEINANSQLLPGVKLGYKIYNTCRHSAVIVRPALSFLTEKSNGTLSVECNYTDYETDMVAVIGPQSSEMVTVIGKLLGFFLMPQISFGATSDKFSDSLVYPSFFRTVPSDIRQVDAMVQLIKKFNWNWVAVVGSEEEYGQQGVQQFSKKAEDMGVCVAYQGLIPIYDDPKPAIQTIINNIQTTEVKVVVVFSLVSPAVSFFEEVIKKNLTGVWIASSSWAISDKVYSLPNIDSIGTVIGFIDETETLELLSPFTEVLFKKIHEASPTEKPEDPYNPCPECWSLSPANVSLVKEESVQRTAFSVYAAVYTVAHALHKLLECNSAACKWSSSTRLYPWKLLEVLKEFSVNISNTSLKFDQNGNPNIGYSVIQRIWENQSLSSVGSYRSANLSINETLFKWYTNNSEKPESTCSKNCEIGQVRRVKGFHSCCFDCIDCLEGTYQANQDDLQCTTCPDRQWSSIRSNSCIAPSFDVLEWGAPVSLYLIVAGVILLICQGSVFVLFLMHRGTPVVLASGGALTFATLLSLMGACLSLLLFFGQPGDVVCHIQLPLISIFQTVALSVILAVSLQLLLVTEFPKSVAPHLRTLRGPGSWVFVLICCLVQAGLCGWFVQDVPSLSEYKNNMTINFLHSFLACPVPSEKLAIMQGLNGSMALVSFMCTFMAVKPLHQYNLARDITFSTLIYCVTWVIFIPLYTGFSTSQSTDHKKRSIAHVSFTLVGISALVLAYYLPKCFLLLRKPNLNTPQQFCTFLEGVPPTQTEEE
# B1: Fab16A, Fab fragment of the anti-T1r2a-3LBD monoclonal antibody clone 16A (Fab, V domains shown)
# VH: EVQLQQSGPELVKPGASMKISCKASGYSFTGYSMNWVKQSHGKNLEWIGLINPYNGDTTYKQKFKGKATLTVDRSSSTAYMELLRLTSEDSAVYYCARSGRGAPTTTTAWFTYWGQGTLVTVSA
# VL: DIVLTQSPASLAVSLGQRATISCRASESVDSYGNSFMHWYQQKPGQPPILLISRASNLESGIPARFSGSGSRTDFTLTINPVEADDFATYYCQQTNEDPRTFGGGTKLEIK
# notes: Parent antibody is mouse IgG1:kappa; Fab made by papain digestion; also called anti-T1r2a-3LBD mAb clone 16A; source: mouse hybridoma (Mikuri Immunological Lab. Co.); IgG digested with Immobilized-Papain, purified (Protein A Sepharose, Mono S)
# Experiments:
# [1] = target: T1r2a–T1r3LBD heterodimer (Oryzias latipes, UniProt A0A173M094+A0A173M0G2); assay: FRET signal change of T1r2aLBD-Cerulean and T1r3LBD-Venus heterodimer on amino acid binding; settings: for FRET signal elevation of fluorescence-labelled LBDs: qualitative
# Experimental: The conformational change of T1r2a–T1r3LBD on ligand binding was analysed by Förster resonance energy transfer (FRET) measurement. The heterodimer of the T1r2aLBD (M1-S474)—Celurean fusion protein (T1r2aL-Ce) and the T1r3LBD (M1-S491)—Venus fusion protein (T1r3L-Ve) was stably expressed by S2 cells (Invitrogen) and purified by ANTI-FLAG M2 affinity gel (SIGMA) by use of the FLAG-tag at their C termini, as previously described[22]. […] The titration curves were fitted to the Hill equation by using KaleidaGraph (Synergy Software).
# Therefore, at least two independent measurements were performed in this study, except for the inset in Fig. 2a with a single analysis.
# [2] = target: full-length T1r2a–T1r3 receptor (Oryzias latipes, UniProt A0A173M094+A0A173M0G2); assay: Ca2+ flux assay of full-length receptor in HEK293 (Flip-In 293) cells; format: cell-based, medaka fish (Oryzias latipes); settings: for Response of the full-length receptor according to Ca2+-imaging: qualitative, tested up to 10 mM
# Experimental: (§1) The Ca^2+ flux assays were performed using a FLEX station 3 (Molecular Devices, LLC) for the cells loaded with 100 μl of Hank's balanced salt solution (Sigma-Aldrich), containing 5 μM of the calcium indicator dye Fluo8 NW (AAT Bioquest). The stimulation was performed by adding 25 μl of 5 × concentrated solutions of taste substances, using a pipette. The intensity of the response was represented as ΔRFU (delta relative fluorescence unit) defined as maximum fluorescence value for the taste substances minus that for the Hank's Balanced Salt Solution, and was plotted versus the ligand concentration. The concentration-response curves were fitted to the Hill equation, using SigmaPlot software (Systat Software).
# T1r2a–T1r3:S300E mutant = target: T1, T1r2a–T1r3:S300E mutant; assay: cell-based; parameters: species or system medaka fish (Oryzias latipes)
# Experimental: as §1
# Mutations were introduced using QuikChange (Agilent Technologies) or PrimeStarMax (TAKARA BIO, only for T1r2a:S165I) with primers summarized in Supplementary Table 3.
# [3] = cited from earlier work; for Hydropathy index: ref Handbook of Chemistry and Physics, CRC Press; for pI: ref Kyte & Doolittle, J. Mol. Biol., 157, 105-132, 1982; for Volume: ref Tsai et al. J. Mol. Biol., 290, 253-266,1999
# human T1r1–T1r3 = system: human T1r1–T1r3; parameters: method as in PMID 24214976; settings: cited from earlier work
# [4] = target: T2, T1r2a-T1r3LBD heterodimer, medaka fish (Oryzias latipes (medaka fish), UniProt A0A173M0G2;A0A173M094, glycosyl chains trimmed to single N-acetylglucosamine residues by Endo H | glycosyl chains trimmed to single N-acetylglucosamine residues by Endo H); assay: crystal structure; T1r2a-3LBD heterodimer co-crystallised with Fab16A, with bound L-Gln, L-Ala, L-Arg, L-Glu or Gly; sitting-drop vapor diffusion with microseeding, PEG 1500, PEG400, 0.1 M MES pH 6.0, 293 K; settings: both partners purified
# T2 construct: signal peptide in the construct; The two chains are joined by an intermolecular disulfide bridge, Cys344 (T1r2a) to Cys132 (T1r3); also called T1r2a-3LBD; T1r2aLBD-T1r3LBD heterodimer; source: S2 cells, stably co-expressed (5 uM kifunensine), from culture medium, purified (ANTI-FLAG M2, factor Xa, Endo H, SEC); not shown: FLAG, C-terminal, cleaved; copies: 1 + 1
# [5] = fitted parameter ± s.e. of Hill equation, Fig. 2b, intracellular Ca2+ elevation, HEK293, read-out: EC50 Receptor responses, T1r2a wt T1r3 wt
# [6] = fitted parameter ± s.e. of Hill equation, intracellular Ca2+ elevation, HEK293, read-out: EC50 Receptor responses, T1r2a wt T1r3 S300E
Molecule,Response of the full-length receptor according to Ca2+-imaging ([2]; Fig. 2b),FRET signal elevation of fluorescence-labelled LBDs ([1]; Fig. 2a),Hydropathy index [3],pI [3],Volume [3],EC50 [1],also measured
NC(=O)CCC(N)C(=O)O (stereo in doubt) [D-glutamine],–,–,–,–,–,–,"FRET signal elevation of fluorescence-labelled LBDs, L- versus D-glutamine comparison ([1]; Fig. 2a inset, 283 K, single analysis): but not D-glutamine, induced FRET signal elevation"
NCC(=O)O [Glycine],poor or no significant receptor responses,induced FRET signal elevation,–,–,–,–,"EC50 ([1]; read-out: EC50 FRET changes of LBD, T1r2aLBD wt T1r3LBD wt, fitted parameter ± s.e. of Hill equation, Fig. 2a, room temperature): 6180 ± 3320 µM"
C[C@H](N)C(=O)O [L-Alanine],induced responses,induced FRET signal elevation,1.8,6.00,90.0 Å3,141 ± 37 µM,"EC50 [2, 5]: 2460 ± 2670 µM; EC50 (T1r2a–T1r3:S300E mutant; [6]): 1800 ± 300 µM"
N=C(N)NCCC[C@H](N)C(=O)O [L-Arginine],induced responses,induced FRET signal elevation,-4.5,10.76,194.0 Å3,190 ± 35 µM,EC50 [2]: 470 ± 297 µM; EC50 (T1r2a–T1r3:S300E mutant): 1300 ± 100 µM
N[C@@H](CCC(=O)O)C(=O)O [L-Glutamate],poor or no significant receptor responses,induced FRET signal elevation,-3.5,3.22,142.2 Å3,1070 ± 382 µM,"EC50 (human T1r1–T1r3): ~2700 µM; Maximum FRET change at saturating concentrations ([1]; compared with glutamine, Fig. 2a): larger changes"
NC(=O)CC[C@H](N)C(=O)O [L-Glutamine],induced responses,induced FRET signal elevation,–,–,–,11.5 ± 3.4 µM,"EC50 [2, 5]: 70 ± 8 µM; EC50 (T1r2a–T1r3:S300E mutant; [6]): 200 ± 19 µM"
B1,–,–,–,–,–,–,binding result [4]: binds
